# Experiments:
# [1] = tested on: ovarian masses or hemorrhagic cysts; test: incidence of ovarian masses or hemorrhagic cysts at necropsy; type: in vivo, mouse (female BALB/c); conditions: for # Ovary Masses/Cysts / % Yield (percentage of mice with ovarian masses or hemorrhagic cysts): GC4419 24 mg/kg i.p.; for occurrence of ovarian masses and hemorrhagic cysts vs untreated: final results (FIG. 4)
# Protocol: All animal studies conducted used female BALB/c mice irradiated at 77-91 days of age and housed for a lifetime study to determine rates of carcinogenesis and survival. Animals were purchased from Charles River Laboratory, shipped to Brookhaven National Laboratory, and irradiated with the doses and ion species described below.
# Animals were treated or not with GC4419. Those animals treated with GC4419 followed the following strategy. GC4419 was delivered at a dose of 24 mg/kg (mice were weighed prior to drug delivery) interperitoneally (i.p.) at roughly 45-60 minutes prior to radiation exposure. GC4419 was then provided i.p. for the next 6 days, and the animals were shipped to UT Southwestern (UTSW) Medical Center for temporary quarantine before returning to the animal facility. Upon return to UTSW the animals were treated with GC4419 i.p. weekly for another 11 weeks for a total of 12 weeks on treatment.
# Radiation exposures were whole body. The galactic cosmic ray (GCR) simulation exposures used the beam line at the NASA Space Radiation Laboratory at Brookhaven National Lab (BNL) and the γ-ray exposures used a ^137Cs source at BNL. Subsequent to single dose irradiation, animals were returned to their cages.
# Galactic cosmic rays (GCR) are heavy ion radiation characteristic of the deep space environment, and the GCR simulation (GCRsim) at BNL mimics the complex radiation environment in space. The GCRsim ions used are described in Table 1 below.
# Pathological endpoints were also considered. Specifically, lung cancer induction, or carcinogenesis, and other tumors that are evident in numbers large enough to consider as secondary endpoints. These endpoints are described in the following tables and figure. The term “masses” is used to describe an abnormal growth, evident by eye, within a given tissue; for example, the term “lung masses” is used to describe abnormal tissues found in the lung that are collected for pathologic examination.
# Given prior experience with the mouse model of radiation-induced carcinogenesis, it is expected that most, if not all, of the lung masses are tumors. For the ovarian masses, some proportion of the masses are expected to be tumors. For observations of hepatosplenomegaly, many of the enlarged livers and spleens may not reflect tumors of those organs. These may, however, may be present as result of hematologic malignancies, such as leukemias, but that was not assessed in this experiment.
# Table 3 presents the incidence of ovarian masses and hemorrhagic cysts observed at necropsy by treatment cohort, including preliminary data for certain γ-ray cohorts through approximately 600 days post-irradiation and for unirradiated animals treated with GC4419 (Control+GC4419) cohort through approximately 400 days post-irradiation. FIG. 4 presents final results for incidence of ovarian masses and hemorrhagic cysts.
# [2] = tested on: kidney damage from cisplatin; conditions: cisplatin therapy for cancer; cited from earlier work
# [3] = tested on: Non-Small Cell Lung Carcinoma Cell Lines; conditions: NSCLC cell lines; with cisplatin or cisplatin plus radiation; cited from earlier work
smiles,measurement,setting,value
[Cl][Mn][Cl].c1cc2nc(c1)CN[C@H]1CCCC[C@@H]1NCCN[C@H]1CCCC[C@@H]1NC2 [GC4419],# Ovary Masses/Cysts,"[1]; GCRsim 0.4 Gy, 224 mice",26
same,% Yield (percentage of mice with ovarian masses or hemorrhagic cysts),"[1]; GCRsim 0.4 Gy, 224 mice, untreated pair 12.5",11.6%
same,# Ovary Masses/Cysts,"[1]; GCRsim 0.75 Gy, 248 mice",43
same,% Yield (percentage of mice with ovarian masses or hemorrhagic cysts),"[1]; GCRsim 0.75 Gy, 248 mice, untreated pair 24.2",17.3%
same,occurrence of ovarian masses and hemorrhagic cysts vs untreated,[1]; GCRsim 0.75 Gy,markedly decreased occurrence of ovarian masses and hemorrhagic cysts
same,# Ovary Masses/Cysts,"[1]; unirradiated (0 Gy), 235 mice, preliminary, approx. 400 days",0
same,% Yield (percentage of mice with ovarian masses or hemorrhagic cysts),"[1]; unirradiated (0 Gy), 235 mice, preliminary, approx. 400 days, untreated pair 10.6",0.0%
same,occurrence of ovarian masses and hemorrhagic cysts vs untreated,[1]; unirradiated,markedly decreased occurrence of ovarian masses and hemorrhagic cysts
same,# Ovary Masses/Cysts,"[1]; γ-ray 0.75 Gy, 248 mice, preliminary for certain γ-ray cohorts (approx. 600 days)",22
same,% Yield (percentage of mice with ovarian masses or hemorrhagic cysts),"[1]; γ-ray 0.75 Gy, 248 mice, preliminary for certain γ-ray cohorts (approx. 600 days), untreated pair 28.9",8.8%
same,occurrence of ovarian masses and hemorrhagic cysts vs untreated,"[1]; γ-ray 0.75 Gy, statistically significant, p<0.05",markedly decreased occurrence of ovarian masses and hemorrhagic cysts
same,# Ovary Masses/Cysts,"[1]; γ-ray 1.5 Gy, 248 mice, preliminary for certain γ-ray cohorts (approx. 600 days)",24
same,% Yield (percentage of mice with ovarian masses or hemorrhagic cysts),"[1]; γ-ray 1.5 Gy, 248 mice, preliminary for certain γ-ray cohorts (approx. 600 days), untreated pair 21.7",9.6%
same,kidney damage from cisplatin,[2],reduce kidney damage from cisplatin therapy
same,response to cisplatin and cisplatin plus radiation,[3],Enhances the Response of Non-Small Cell Lung Carcinoma Cell Lines to Cisplatin and Cisplatin Plus Radiation

# — patent publication US20260373193A1, “CARCINOGENESIS REDUCTION WITH PENTAAZA MACROCYLIC RING COMPLEX” (GALERA LABS, LLC, priority 2023, published 2026)
